Assays:
rNsp5-L50F/E166V = type: cell-based, SARS-CoV-2; settings: read-out: rNsp5-L50F/E166V EC50
rNsp5-L50F/E166A/L167F = type: cell-based, SARS-CoV-2; settings: read-out: rNsp5-L50F/E166A/L167F EC50

SMILES: CC(C)(C)[C@H](NC(=O)C(F)(F)F)C(=O)N1C[C@H]2[C@@H]([C@H]1C(=O)N[C@H](C#N)C[C@@H]1CCNC1=O)C2(C)C [Nirmatrelvir, nirmatrelvir]
- EC50 (rNsp5-L50F/E166V): > 1000 nM
- EC50 (rNsp5-L50F/E166A/L167F): 630 nM

— paper PMC11825904 (Nature Communications, 2025)
